# Data as given in patent US10709744B1, “Probiotic biofilm suppositories” (priority 2019, dated 2020).
# Read-outs that look alike come from different tables or passages of the source.
# Legend:
# Format in all cases: cell-based
# [1] = system: Lactobacillus jensenii; assay: Antibiotic MIC strip assay, planktonic LJ; settings: for MIC: Lactobacillus jensenii
# Description: (§1) For antibiotic assay, and overnight culture was diluted to an optical start density (OD) of 0.13. […] Plates were incubated at 37° C. for 24 h before minimum inhibitory concentration (MIC) value were determined.
# [2] = system: Lactobacillus crispatus; assay: Antibiotic MIC strip assay, planktonic LCr; settings: for MIC: Lactobacillus crispatus
# Description: as §1
# [3] = system: Lactobacillus gasseri; assay: Antibiotic MIC strip assay, planktonic LG; settings: for MIC: Lactobacillus gasseri
# Description: as §1
# [4] = system: Lactobacillus rhamnosus; assay: Antibiotic MIC strip assay, planktonic LRh
# Description: as §1
# [5] = system: LP Bacteria in form of biofilm; assay: Effect of additives (cranberries, ascorbic acid) on Bacteria in form of biofilm survival and growth
# Excerpt: High vaginal pH is associated with an increase of vaginal pathogens and the acidity of the vagina has long been understood to be a protective mechanism against colonization of anaerobes pathogens while creating a favourable environment for the lactobacilli to thrive. Examining the effect of different additives (cranberries and ascorbic acid) on Bacteria in form of biofilm LP (as part of a small scale). […] The aim is to add one of these additives along with the Bacteria in form of biofilm in the suppository composition. As such, their effect on Bacteria in form of biofilm survival and growth was tested.
# [6] = system: Lactobacillus iners; assay: Antibiotic MIC strip assay, planktonic LI
# Description: as §1
# [7] = planktonic LJ, MIC strips, 24 h 37° C., read-out: MIC
# [8] = planktonic LCr, MIC strips, 24 h 37° C., read-out: MIC
# [9] = planktonic LG, MIC strips, 24 h 37° C., read-out: MIC
# [10] = Lacticaseibacillus rhamnosus, planktonic LRh, Table 7, read-out: MIC
# [11] = Lacticaseibacillus rhamnosus, planktonic LRh, read-out: MIC
# [12] = planktonic LI, MIC strips, 24 h 37° C., read-out: MIC
"MIC [1, 7] [µg/mL]","MIC [2, 8] [µg/mL]","MIC [3, 9] [µg/mL]","MIC [4, 10] [µg/mL]","MIC [4, 11] [µg/mL]","MIC [6, 12] [µg/mL]",Structure (SMILES),other results
> 256,> 256,> 256,2,0.25,,"O=C(O)c1cn(C2CC2)c2cc(N3CCNCC3)c(F)cc2c1=O [CIP, ciprofloxacin]",susceptibility of planktonic bacteria to antibiotic ([1]; planktonic LJ): not susceptible; susceptibility of planktonic bacteria to antibiotic ([2]; planktonic LCr): not susceptible; susceptibility of planktonic bacteria to antibiotic ([3]; planktonic LG): full resistance
,,,,,,"O=C1O[C@H]([C@@H](O)CO)C(O)=C1O [AA, Ascorbic Acid]",effect of addition of supplement on Bacteria in form of biofilm growth [5]: did not affect
8,4,4,4,4,64,"CC1(C)S[C@@H]2[C@H](NC(=O)C(C(=O)O)c3ccccc3)C(=O)N2[C@H]1C(=O)O (stereo partly drawn) [CB, carbenicillin]",
,,,,,,"CN[C@H](CC(C)C)C(=O)N[C@H]1C(=O)N[C@@H](CC(N)=O)C(=O)N[C@H]2C(=O)N[C@H]3C(=O)N[C@H](C(=O)N[C@H](C(=O)O)c4cc(O)cc(O)c4-c4cc3ccc4O)[C@H](O)c3ccc(c(Cl)c3)Oc3cc2cc(c3O[C@@H]2O[C@H](CO)[C@@H](O)[C@H](O)[C@H]2O[C@H]2C[C@](C)(N)[C@H](O)[C@H](C)O2)Oc2ccc(cc2Cl)[C@H]1O [VAN, vancomycin]","MIC ([6]; 24 h): 4 µg/mL; MIC ([1]; 24 h): 1.5 µg/mL; MIC ([2]; 24 h): 1.5 µg/mL; MIC ([3]; 24 h): 1.5 µg/mL; MIC ([4]; Lacticaseibacillus rhamnosus): > 256 µg/mL; MIC ([4]; planktonic LRh, Table 7): >256 µg/mL"
2,2,2,2,2,16,"CO[C@@H]1[C@@H](OC(N)=O)[C@@H](O)[C@H](Oc2ccc3c(O)c(NC(=O)c4ccc(O)c(CC=C(C)C)c4)c(=O)oc3c2C)OC1(C)C [NVB, novobiocin]",
